Reference: publication PMC6155600, “Design, Synthesis and Cellular Characterization of a Dual Inhibitor of 5-Lipoxygenase and Soluble Epoxide Hydrolase” (Molecules : A Journal of Synthetic Chemistry and Natural …, 2016)

What was measured:
[1] = target: T1, soluble epoxide hydrolase (sEH) (Homo sapiens, UniProt P34913); assay: fluorescence-based enzyme activity assay with recombinant human sEH (PHOME substrate); format: biochemical
T1 construct: gene EPHX2
T1 sequence (P34913 1-555): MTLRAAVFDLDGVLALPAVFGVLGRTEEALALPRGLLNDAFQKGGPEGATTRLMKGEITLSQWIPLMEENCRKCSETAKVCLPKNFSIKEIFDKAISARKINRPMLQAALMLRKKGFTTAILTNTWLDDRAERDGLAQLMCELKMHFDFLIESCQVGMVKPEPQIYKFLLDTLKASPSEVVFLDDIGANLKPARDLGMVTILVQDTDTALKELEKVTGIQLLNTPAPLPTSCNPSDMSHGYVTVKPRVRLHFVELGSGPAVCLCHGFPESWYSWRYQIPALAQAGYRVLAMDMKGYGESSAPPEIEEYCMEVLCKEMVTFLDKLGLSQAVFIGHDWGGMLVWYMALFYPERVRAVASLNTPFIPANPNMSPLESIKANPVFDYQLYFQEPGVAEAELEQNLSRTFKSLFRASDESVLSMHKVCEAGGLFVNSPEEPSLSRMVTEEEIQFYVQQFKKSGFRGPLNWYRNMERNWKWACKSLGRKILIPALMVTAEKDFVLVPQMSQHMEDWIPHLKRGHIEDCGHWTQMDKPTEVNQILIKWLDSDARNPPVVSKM

[2] = target: T2, 5-lipoxygenase (5-LO) (Homo sapiens, UniProt P09917); assay: purified recombinant 5-LO activity assay, arachidonic acid substrate, HPLC product analysis; format: biochemical
T2 construct: gene ALOX5
T2 sequence (P09917 1-674): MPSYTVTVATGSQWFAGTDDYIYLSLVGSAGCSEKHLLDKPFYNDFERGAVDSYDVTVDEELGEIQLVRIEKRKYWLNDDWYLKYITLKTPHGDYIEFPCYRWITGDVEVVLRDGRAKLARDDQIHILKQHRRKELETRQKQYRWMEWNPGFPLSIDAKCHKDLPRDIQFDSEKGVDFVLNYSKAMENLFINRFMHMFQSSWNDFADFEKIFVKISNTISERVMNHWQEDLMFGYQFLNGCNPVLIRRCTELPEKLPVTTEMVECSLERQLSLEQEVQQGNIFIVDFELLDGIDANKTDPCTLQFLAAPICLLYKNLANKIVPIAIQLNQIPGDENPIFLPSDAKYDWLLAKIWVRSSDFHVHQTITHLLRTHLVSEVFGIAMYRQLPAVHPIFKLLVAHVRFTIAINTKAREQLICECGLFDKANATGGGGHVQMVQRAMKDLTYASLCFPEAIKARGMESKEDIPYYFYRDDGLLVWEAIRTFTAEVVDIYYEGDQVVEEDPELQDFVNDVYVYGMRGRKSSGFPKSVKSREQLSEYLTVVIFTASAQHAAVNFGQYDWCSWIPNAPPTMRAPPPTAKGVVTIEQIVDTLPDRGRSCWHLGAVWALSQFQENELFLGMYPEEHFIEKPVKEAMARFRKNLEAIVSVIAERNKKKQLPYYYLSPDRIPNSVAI

SMILES: COc1ccc(CN(O)C(N)=O)cc1OCCCNC(=O)Nc1ccc(OC(F)(F)F)cc1 [compound 5, 1-(3-{5-(Hydroxyureido)methyl-2-methoxyphenoxy}propyl)-3-[4-(trifluoromethoxy)phenyl]urea]
- IC50 [1]: 29 nM
- IC50 [2]: 1300 nM
